{"source": "paper PMC4153739", "about": "(Biochemistry, 2012)", "test_system": "four NR2 NMDA receptor subtypes (NR2A, NR2B, NR2C, NR2D with NR1-2b)", "format": "cell-based, rat", "note": "Non-standard residues stand in square brackets, D forms with d. Residues, ends and D or L forms follow the SMILES beside them. Gla = N[C@@H](CC(C(=O)O)C(=O)O)C(=O)O"}
{"smiles": "CC(C)C[C@H](NC(=O)[C@H](CC(C(=O)O)C(=O)O)NC(=O)[C@H](CCCNC(=N)N)NC(=O)[C@H](C)NC(=O)[C@H](Cc1ccccc1)NC(=O)[C@H](CC(C(=O)O)C(=O)O)NC(=O)[C@H](CCC(N)=O)NC(=O)[C@H](CC(N)=O)NC(=O)[C@H](CC(C(=O)O)C(=O)O)NC(=O)[C@H](C)NC(=O)[C@H](CC(C)C)NC(=O)[C@H](CC(C(=O)O)C(=O)O)NC(=O)[C@H](CC(C(=O)O)C(=O)O)NC(=O)[C@H](CCC(=O)O)NC(=O)CN)C(=O)N[C@@H](C)C(=O)N[C@@H](CC(N)=O)C(N)=O", "note": "[ConRl-B[desKAO;N8Q9]] (H-GE[Gla][Gla]LA[Gla]NQ[Gla]FAR[Gla]LAN-NH2; N-terminus assumed)", "values": [{"measurement": "activity on the four NR2 NMDA receptor subtypes, in words", "value": "little or no activity"}]}
